# Patent US6583248B1, “Polymerizable cyclodextrin derivatives” (American Dental Association Health Foundation, priority 1997, dated 2003)
# Assay: Qualitative solubility tests (polarizing microscope, drop of liquid under cover glass)
# Assay type: physicochemical
# Description: Qualitative solubility tests. A few granules of the βCD or MβCD were placed on a microscope slide, covered with a cover glass, and examined with a polarizing microscope while a drop of liquid was placed to flow under the cover glass. These liquids comprised solvents having a wide range of solubility parameters and a number of monomers that might be of interest in dental or industrial formulations.
subjective solubility in ethylene glycol dimethyl ether (ethylene glycol dimethyl ether),subjective solubility in methanol,subjective solubility in water,"subjective solubility in 1,3-glycerol dimethacrylate (1,3-glycerol dimethacrylate)",subjective solubility in benzyl methacrylate (benzyl methacrylate),subjective solubility in hydroxyethyl methacrylate (hydroxyethyl methacrylate),subjective solubility in triethyleneglycol dimethacrylate (triethyleneglycol dimethacrylate),subjective solubility in undiluted BIS-GMA (undiluted BIS-GMA),Compound
practically insoluble,practically insoluble,very slowly and only slightly soluble,,,,,,"OC[C@H]1O[C@@H]2O[C@H]3[C@H](O)[C@@H](O)[C@@H](O[C@H]4[C@H](O)[C@@H](O)[C@@H](O[C@H]5[C@H](O)[C@@H](O)[C@@H](O[C@H]6[C@H](O)[C@@H](O)[C@@H](O[C@H]7[C@H](O)[C@@H](O)[C@@H](O[C@H]8[C@H](O)[C@@H](O)[C@@H](O[C@H]1[C@H](O)[C@H]2O)O[C@@H]8CO)O[C@@H]7CO)O[C@@H]6CO)O[C@@H]5CO)O[C@@H]4CO)O[C@@H]3CO [βCD, beta-cyclodextrin, reference compound]"
,very rapidly soluble (miscible),practically insoluble,slowly soluble,promptly soluble,promptly soluble,slowly soluble,very slowly soluble,fully methacrylated beta-cyclodextrin [MβCD]
